Source: BigSolDB 2.1

O=[N+]([O-])c1cn[nH]c1
solubility (mole fraction)
Conditions | 288.15 K | 293.15 K | 298.15 K | 303.15 K | 308.15 K | 313.15 K | 318.15 K | 323.15 K | 328.15 K
in THF | 0.00413 | 0.00496 | 0.00592 | 0.00722 | 0.0089 | 0.011 | 0.0134 | 0.017 | 0.022
in acetone | 0.0381 | 0.0405 | 0.0423 | 0.045 | 0.047 | 0.0495 | 0.0525 | 0.0553 | 0.0582
in acetonitrile | 0.0391 | 0.0457 | 0.0529 | 0.0647 | 0.0776 | 0.0906 | 0.108 | 0.124 | 0.135
in ethanol | 0.101 | 0.113 | 0.128 | 0.147 | 0.168 | 0.197 | 0.232 | 0.27 | 0.31
in ethyl acetate | 0.00483 | 0.00609 | 0.00759 | 0.00946 | 0.0118 | 0.0144 | 0.0176 | 0.0214 | 0.0261
in isobutanol | 0.0549 | 0.0648 | 0.0762 | 0.0908 | 0.107 | 0.132 | 0.161 | 0.195 | 0.247
in isopentanol | 0.0629 | 0.0732 | 0.0854 | 0.106 | 0.12 | 0.143 | 0.173 | 0.213 | 0.262
in isopropanol | 0.0481 | 0.0568 | 0.0675 | 0.0827 | 0.0988 | 0.121 | 0.147 | 0.186 | 0.238
in methanol | 0.109 | 0.126 | 0.142 | 0.163 | 0.188 | 0.219 | 0.258 | 0.312 | 0.366
in methyl acetate | 0.00727 | 0.00817 | 0.00942 | 0.0119 | 0.0139 | 0.0169 | 0.0189 | 0.024 | 0.0272
in n-butanol | 0.079 | 0.0902 | 0.104 | 0.12 | 0.14 | 0.166 | 0.199 | 0.241 | 0.283
in n-pentanol | 0.0714 | 0.0823 | 0.095 | 0.112 | 0.132 | 0.156 | 0.189 | 0.232 | 0.276
in n-propanol | 0.0872 | 0.101 | 0.115 | 0.133 | 0.154 | 0.181 | 0.216 | 0.255 | 0.313
in water | 0.00217 | 0.00286 | 0.0036 | 0.00471 | 0.00618 | 0.00763 | 0.00961 | 0.012 | 0.0151
